Results published in patent US20140274969A1 (priority 2013, published 2014).
Like-named read-outs stand apart in the source and are kept apart here.

Key:
[1] = test system: MMP activity; settings: cited from earlier work
[2] = test system: acute traumatic SCI; assay: ASIA sensory recovery (pinprick, light touch) after acute traumatic SCI; format: in vivo, human
Method: Clin. Exp. Pharmacol. Physiol. 1:299-308). […] Neurological function was assessed at intervals using the American Spinal Cord Injury Association (ASIA) standardized neurological examination and included the motor composites and sensory composites. These examinations were performed by a physical medicine and rehabilitation specialist at Day 1 (time of enrolment), Day 4, Day 5, Day 7, Week 3, Week 6, Week 12, Month 6, and Month 12 (Table 3). Day 1 scores were subtracted from each subsequent score to calculate improvement from baseline for graphing purposes. […] ASIA sensory scores were similarly evaluated. […] Functional recovery data were compared over all data points. […] All statistical tests were two-tailed (a=0.05).

[3] = test system: cervical SCI; settings: rat; 90 mg/kg i.p. daily for 3 days; 42-day monitoring; cited from earlier work
[4] = test system: mixed neuronal and glial spinal cord cultures; settings: 20 nM, 30 minutes before 24-hour excitotoxin exposure; cited from earlier work
[5] = test system: amyotrophic lateral sclerosis; settings: human; cited from earlier work
[6] = cited from earlier work
[7] = test system: contusive SCI; settings: rats; 90 mg/kg i.p. or via jugular cannula, then two 45 mg/kg i.p. at 12-h intervals; cited from earlier work
[8] = cited from earlier work; remark: listed apart in the source
[9] = Method: Subjects were evaluated for adverse events daily while in hospital and at each subsequent clinical evaluation. All serious adverse events (Table 4) were reviewed promptly by a safety monitoring board composed of clinicians and clinician researchers not otherwise involved in this study. A summary of all adverse events was reviewed every 6 months.
The model assumed that any change associated with treatment group was constant over these time points. An interaction term between treatment and injury type was included to allow for the possibility that changes associated with treatment group differed among motor-complete and motor-incomplete injured subjects. ASIA sensory scores were similarly evaluated. ASIA motor, pin-prick and light scores were evaluated by the Shapiro-Wilk normality test and were consistent with a normal distribution. Functional recovery data were compared over all data points. Adverse events were categorized by system and mean numbers of events per patient were compared within each system by ANOVA. All statistical tests were two-tailed (a=0.05). […] The Student t-test was then used to estimate the between group difference that this study was powered to detect with power=0.8 and a=0.05.

[10] = long-term administration, global reports
[11] = High dose (800 mg tapered by 100 mg each 12 h to 400 mg, 7 days)
[12] = Low dose (200 mg IV twice daily, 7 days)

CN(C)c1ccc(O)c2c1C[C@H]1C[C@H]3[C@H](N(C)C)C(O)=C(C(N)=O)C(=O)[C@@]3(O)C(O)=C1C2=O [minocycline, (2E,4S,4aR,5aS,12aR)-2-(amino-hydroxy-methylidene)-4,7-bis(dimethylamino)-10,11,12a-trihydroxy-4-a,5,5a,6-tetrahydro-4H-tetracene-1,3,12-trione]
inhibition of MMP activity [1]: potent inhibitor
ASIA pinprick sensory recovery greater than placebo ([2]; all subjects, not statistically significant, P=0.15): nine
ASIA light-touch sensory recovery greater than placebo ([2]; all subjects, not statistically significant, P=0.27): seven
ASIA light-touch score higher than placebo ([2]; cervical motor-incomplete, P=0.20): 20 light-touch points
ASIA pinprick score higher than placebo ([2]; cervical motor-incomplete, P=0.49): 14 pinprick points
difference in sensory scores vs placebo ([2]; thoracic SCI): No difference
functional or histological improvements [3]: did not result in any functional or histological improvements
IL-1β and NO metabolite production [4]: reduced
microglia proliferation [4]: Inhibition
neuronal cell survival [4]: more than doubled
clinical outcome in amyotrophic lateral sclerosis [5]: clinical deterioration
serum concentrations well tolerated ([6]; humans): up to 6.2 mg/L
cases of drug induced lupus [6, 10]: 33 cases
cases of hypersensitivity reaction [6, 10]: 19 cases
cases of serum sickness-like reaction [6, 10]: 11 cases
cases of single organ dysfunction [6, 10]: 40 cases
behavioural or histological improvements or recovery from SCI [7]: neither route for minocycline administration resulted in any behavioural or histological improvements
eliminated unchanged through the kidneys ([8]; human, in vivo): Eight to twelve
elimination in biologically active form through the feces ([8]; human, in vivo): 20-35 % of the initial dose
metabolism to three inactive liver metabolites excreted in urine and feces ([8]; human, in vivo): 50-60 % of the administered dose
peak serum concentration ([8]; oral 150 mg): about 2 mg/L
peak serum concentration ([8]; oral 300 mg): about 4 mg/L
half-life ([8]; oral or intravenous administration): 16 h
Autonomic dysreflexia: # of events [9, 11]: 1
Autonomic dysreflexia: # of subjects [9, 11]: 1
Cardiac: # of events [9, 11]: 14
Cardiac: # of subjects [9, 11]: 9
Deep venous thrombosis: # of events [9, 11]: 1
Deep venous thrombosis: # of subjects [9, 11]: 1
Deep venous thrombosis: events/subject [9, 11]: 0.06
Endocrine: # of events [9, 11]: 0
Endocrine: # of subjects [9, 11]: 0
Endocrine: events/subject [9, 11]: 0
Gastrointestinal: # of events [9, 11]: 36
Gastrointestinal: # of subjects [9, 11]: 12
Gastrointestinal: events/subject [9, 11]: 1.88
Genito-urinary: # of events [9, 11]: 7
Genito-urinary: # of subjects [9, 11]: 5
Genito-urinary: events/subject [9, 11]: 0.44
Haematological: # of events [9, 11]: 9
Haematological: # of subjects [9, 11]: 6
Haematological: events/subject [9, 11]: 0.63
Infectious: # of events [9, 11]: 28
Infectious: # of subjects [9, 11]: 11
Infectious: events/subject [9, 11]: 1.38
Integumentary: # of events [9, 11]: 21
Integumentary: # of subjects [9, 11]: 11
Integumentary: events/subject [9, 11]: 1.13
Musculoskeletal: # of events [9, 11]: 14
Musculoskeletal: # of subjects [9, 11]: 13
Musculoskeletal: events/subject [9, 11]: 0.75
Neurological: # of events [9, 11]: 16
Neurological: # of subjects [9, 11]: 10
Neurological: events/subject [9, 11]: 0.56
Other: # of events [9, 11]: 19
Other: # of subjects [9, 11]: 11
Pain: # of events [9, 11]: 31
Pain: # of subjects [9, 11]: 14
Psychiatric: # of events [9, 11]: 18
Psychiatric: # of subjects [9, 11]: 8
Psychiatric: events/subject [9, 11]: 1.13
Respiratory: # of events [9, 11]: 13
Respiratory: # of subjects [9, 11]: 9
Respiratory: events/subject [9, 11]: 0.81
Serious adverse events: # of events [9, 11]: 1
Serious adverse events: # of subjects [9, 11]: 1
Serious adverse events: events/subject [9, 11]: 0.06
Autonomic dysreflexia: # of events [9, 12]: 0
Autonomic dysreflexia: # of subjects [9, 12]: 0
Cardiac: # of events [9, 12]: 5
Cardiac: # of subjects [9, 12]: 4
Deep venous thrombosis: # of events [9, 12]: 0
Deep venous thrombosis: # of subjects [9, 12]: 0
Deep venous thrombosis: events/subject [9, 12]: 0
Endocrine: # of events [9, 12]: 1
Endocrine: # of subjects [9, 12]: 1
Endocrine: events/subject [9, 12]: 0.2
Gastrointestinal: # of events [9, 12]: 12
Gastrointestinal: # of subjects [9, 12]: 5
Gastrointestinal: events/subject [9, 12]: 2.2
Genito-urinary: # of events [9, 12]: 0
Genito-urinary: # of subjects [9, 12]: 0
Genito-urinary: events/subject [9, 12]: 0
Haematological: # of events [9, 12]: 2
Haematological: # of subjects [9, 12]: 2
Haematological: events/subject [9, 12]: 0.4
Infectious: # of events [9, 12]: 12
Infectious: # of subjects [9, 12]: 4
Infectious: events/subject [9, 12]: 1.8
Integumentary: # of events [9, 12]: 5
Integumentary: # of subjects [9, 12]: 4
Integumentary: events/subject [9, 12]: 1.0
Musculoskeletal: # of events [9, 12]: 4
Musculoskeletal: # of subjects [9, 12]: 4
Musculoskeletal: events/subject [9, 12]: 0.6
Neurological: # of events [9, 12]: 11
Neurological: # of subjects [9, 12]: 5
Neurological: events/subject [9, 12]: 1.6
Other: # of events [9, 12]: 13
Other: # of subjects [9, 12]: 5
Pain: # of events [9, 12]: 10
Pain: # of subjects [9, 12]: 5
Psychiatric: # of events [9, 12]: 8
Psychiatric: # of subjects [9, 12]: 4
Psychiatric: events/subject [9, 12]: 1.2
Respiratory: # of events [9, 12]: 5
Respiratory: # of subjects [9, 12]: 4
Respiratory: events/subject [9, 12]: 1.0
Serious adverse events: # of events [9, 12]: 1
Serious adverse events: # of subjects [9, 12]: 1
Serious adverse events: events/subject [9, 12]: 0.2
adverse events among placebo, low-dose and high-dose groups ([9]; low-dose (200 mg) or high-dose (400 mg) vs placebo): did not vary significantly
